These results are taken from patent publication US10933044B2, “Marine organism-derived extract, compound, and medical composition having niche formation suppressing activity of leukemic stem cells” (WASEDA UNIVERSITY, priority 2016, dated 2021).

Assay [1] deals with MB-1 cells co-cultured with OP9 cells. Briefly: Screening for cobblestone area (CA) formation inhibitory activity in co-culture of OP9 cells and MB-1 cells. It is filed as cell-based, human. The note with it: OP9/MB-1 co-culture, 48 hours incubation with sample; tested at 10, 2, 0.4 and 0.08 μg/mL; microscopic observation. The procedure:
In individual wells of a 96-well plate, OP9 cells (9.0×10^3) treated with 3 μg/mL mitomycin C (Sigma-Aldrich Co. LLC., USA) for 3 hours (37° C., 5% CO2) were seeded and incubated at 37° C. under 5% CO2. The culture liquid used herein was α MEM (Gibco) containing 20% inactivated FBS (MP Biomedicals, LLC., USA) and 1% penicillin-streptomycin (P/S, Gibco, Thermo Fisher Scientific Inc., USA). The following day, to the individual wells having OP9 cells seeded therein, MB-1 cells (2.5×10^3) were seeded. In the co-culture of the OP9 cells and MB-1 cells, the culture liquid used herein was α MEM containing 10% inactivated FBS (Biowest SAS, France), 1% P/S, 1% non-essential amino acids (NEAA, Invitrogen, Thermo Fisher Scientific Inc.) and 10 μM β-mercaptoethanol (Gibco). Forty-eight hours later, a Porifera sample (2 μL) dissolved in DMSO was added and diluted five times to prepare four solutions different in concentration (10 μg/mL, 2 μg/mL, 0.4 μg/mL and 0.08 μg/mL). After incubation was performed for 48 hours at 37° C. under 5% CO2, fixation was performed with 4% paraformaldehyde (Wako Pure Chemical Industries, Ltd.), nuclear-staining was performed with Hoechst 33342 (Dojindo Laboratories, Kumamoto) and observation was made with a microscope (Type IX71, Olympus Corporation Ltd., Tokyo). […]

For assay [2] the test system is unchanged. Briefly: Apoptosis detection with NucView 488 Caspase-3 Assay Kit in co-culture of MB-1 cells and OP9 cells. In kind it is cell-based, human. The note with it: for Apoptosis induction of MB-1 cells (%): NucView 488 positive cells. As to the method: To a 12-well plate, OP9 cells treated with MMC were seeded at a density of 1.6×10^5 cells per well. After culture was performed for one day, MB-1 cells were seeded at a density of 8.0×10^4 cells per well. After culture was performed for two days, Stelliferin A was added in a concentration of 0.4 μg/mL. After culture was performed for one day, imatinib was added in a concentration of 0.2 μM or 1.0 μM. After culture was performed for one day, apoptosis was detected in the manner described below.
Apoptosis was detected by use of NucView 488 Caspase-3 Assay Kit for Live Cells (Biotium, USA) or a fluorescent reagent JC-1 (Cayman Chemical, USA) which detects mitochondrial membrane potential difference.
In evaluation by NucView 488, 0.05% trypsin-EDTA was added to individual wells. After incubation for 4 minutes, the culture liquid was added. Aliquots were separately taken and then centrifuged (1,200 rpm, 4 minutes) to collect cells. Each of the suspensions of the cells collected was controlled so as to obtain a density of 1.0×10^6 cells per mL. Aliquots (200 μL) were separately taken from the suspensions. To the cells thus taken, 5 μL of NucView 488 substrate stock solution of NucView 488 Caspase-3 Assay Kit for Live Cells was added and incubated in the darkness at normal temperature for 20 minutes. Culture liquid (300 μL) was added and subjected to analysis by a cell sorter (Type SH-800, SONY Corporation, Tokyo). The ratio of green fluorescent positive cells per each well was calculated.

For assay [3], the system named is MB-1 cells. Briefly: Apoptosis inducing action by imatinib alone in culture system of MB-1 cells alone (NucView 488). In kind it is cell-based, human. The following applies: imatinib 0.2 μM or 1.0 μM, one day; compared to MB-1 cells co-cultured in the absence of Stelliferin A. As to the method:
Apoptosis inducing action by imatinib alone in a culture system of MB-1 cells alone was evaluated.
From a co-culture system with OP9 cells, MB-1 cells were purified by a cell sorter and seeded to 12-well plates at a density of 2.0×10^5 cells per well, and then, imatinib was added in a concentration of 0.2 μM or 1.0 μM. After culture was performed for one day, apoptosis was detected in the manner described below.
Apoptosis was detected by use of NucView 488 Caspase-3 Assay Kit for Live Cells (Biotium, USA) in the same manner as in the apoptosis detection performed in the co-culture system of MB-1 cells and OP9 cells.

The test system of assay [4] is MB-1 cells co-cultured with OP9 cells. Briefly: Apoptosis detection with JC-1 mitochondrial membrane potential reagent in co-culture of MB-1 cells and OP9 cells. It is filed as cell-based, human. The procedure:
The effect of the Stelliferin compound on CA formed by co-culture of OP9 cells (serving as support cells for the CA formation in the mouse mesenchymal cells) and MB-1 cells was examined by apoptosis detection reagent JC-1.
To a 24-well plate, OP9 cells treated with MMC were seeded at a density of 8.0×10^4 cells per well. After culture was performed for one day, MB-1 cells were seeded at a density of 4.0×10^4 cells per well. After culture was performed for two days, Stelliferin A was added in a concentration of 0.4 μg/mL. After culture was performed for one day, imatinib was added in a concentration of 1.0 μM. After culture was performed for one day, apoptosis was detected in the manner described below.
Apoptosis was detected by JC-1 Mitochondrial Membrane Potential Assay Kit. To each well, 50 μL of JC-1 Reagent of JC-1 Mitochondrial Membrane Potential Assay Kit was added and incubation was carried out for 20 minutes. Thereafter, 0.05% trypsin-EDTA was added to each well and incubation was carried out for 4 minutes. After a culture liquid was added, aliquots were separately taken and then centrifuged (1,200 rpm, 4 minutes) to collect cells. The collected cells were separately suspended in 300 μL of a culture liquid and analyzed by a cell sorter (Type SH-800, SONY Corporation, Tokyo). The ratios of red fluorescent negative cells in individual wells were calculated.

Assay [5] has the same test system. As to the kind of experiment: Stereoscopic positional relationship between mCherry OP9 cells and GFP MB-1 cells by confocal microscope. The note with it: Stelliferin A 0.4 μg/mL, two days. In kind it is cell-based, human. As to the method: The effect of a Stelliferin compound on the stereoscopic positional relationship between OP9 cells (which serve as support cells in CA formation in the mouse mesenchymal cells) and MB-1 cells was examined by using OP9 cells and MB-1 cells to which fluorescent proteins were separately introduced.
To a 35-mm dish having a glass bottom, OP9 cells, which were treated with MMC and to which fluorescent protein mCherry was introduced, were seeded at a density of 4.0×10^5 cells. After culture was performed for one day, fluorescent protein GFP introduced MB-1 cells were seeded at a density of 2.0×10^5 cells. After culture was performed for two days, Stelliferin A was added in a concentration of 0.4 μg/mL. After culture was performed for two days, the stereoscopic positional relationship between the cells was photographed with a confocal microscope (Type IX81, Olympus Corporation), and examined.

The subject of assay [6] is TF-1 cells co-cultured with OP9 cells. Briefly: Niche (CA) formation suppression in co-culture of TF-1 cells and OP9 cells. In kind it is cell-based, human. The note with it: TF-1/OP9 co-culture; Stelliferin A at 0.4 μg/mL, two days. The procedure: In order to verify that the action of Stelliferin A to suppress niche formation by MB-1 cells is not specific to MB-1 cells, the actions of a fat-soluble fraction of S12111 and Stelliferin A against niche formation by TF-1 cells were evaluated in a co-culture system of TF-1 cells (which have leukemic stem-cell-like characteristics similarly to MB-1 cells) and OP9 cells.
The experiment was carried out basically in the same manner as employed in the evaluation with MB-1 cells mentioned above except that TF-1 cells (strain derived from human bone marrow erythroleukemia cells) were used in place of MB-1 cells. In evaluation of Stelliferin A, more specifically, evaluation of niche formation suppressive action of Stelliferin A in the co-culture system of TF-1 cells and OP9 cells, OP9 cells (8.0×10^4) treated with MMC were seeded in individual wells of a 24-well plate. After culture was performed for one day, TF-1 cells (4.0×10^4) were seeded. The culture liquid used herein was IMDM (Gibco) containing 10% inactivated FBS (Biowest SAS, France) and 1% P/S. After culture was performed for one day, medium was exchanged. After culture was performed for further one day, Stelliferin A was added in a concentration of 0.4 μg/mL. After culture was performed for two days, the presence or absence of CA formation was observed by a microscope.

Assay [7] concerns MB-1 cells co-cultured with OP9 cells. As to the kind of experiment: CA reformation after Stelliferin A treatment of OP9/MB-1 co-culture and exchange of culture medium. In kind it is cell-based, human. The note with it: Stelliferin A 0.4 μg/mL Day 4 to Day 6, fresh medium without it, examined Day 8. The procedure:
(§1) On Day 1, OP9 cells were seeded in a culture medium in the same manner as above and incubated. On Day 2, MB-1 cells were seeded and co-cultured with the OP9 cells. On day 4, Stelliferin A was added so as to be 0.4 μg/mL and incubated.

For assay [8], the system named is MB-1 cells. Briefly: CA reformation when free MB-1 cells from treated co-culture are co-cultured with fresh OP9 cells. In kind it is cell-based, human. The note with it: Stelliferin A 0.4 μg/mL Day 4 to Day 6, then co-culture in the absence of Stelliferin A, examined Day 8. The procedure:
as §1

The next assay has as its system OP9 cells. As to the kind of experiment: CA formation when OP9 cells exposed to Stelliferin A are co-cultured with unexposed MB-1 cells. It is filed as cell-based, mouse. The following applies: OP9 cells exposed to 0.4 μg/mL Day 2 to Day 4, then unexposed MB-1 cells; compared to unexposed control. The procedure:
On Day 1, OP9 cells were seeded in a culture medium in the same manner as above and incubated. On Day 2, Stelliferin A was added so as to be 0.4 μg/ml, and incubated. On Day 4, fresh MB-1 cells not exposed to Stelliferin A were seeded and co-cultured. On Day 6, whether CA was formed or not was examined. Also, for comparison, CA formation was examined in a control system where OP9 cells and MB-1 cells were co-cultured in the absence of Stelliferin A in accordance with the above schedule.

Entries after “also recorded” stand apart in the source; their conditions may differ.

As to Stelliferin B, the “CA formation inhibitory activity” value in assay [1] was 0.08 µg/mL.
As to `Cc1ccc(NC(=O)c2ccc(CN3CCN(C)CC3)cc2)cc1Nc1nccc(-c2cccnc2)n1` [Imatinib, imatinib, reference compound], the “Apoptosis induction of MB-1 cells (%)” value is recorded as 8.07% in [2] (imatinib 0.2 μM, Stelliferin A absent) and 12.14% in assay [2] (imatinib 1.0 μM, Stelliferin A absent). In the assay with MB-1 cells [3], the “Sensitivity of MB-1 cells cultured alone to imatinib (apoptosis)” value is “high sensitivity”.
For Stelliferin A, the “CA formation inhibitory activity” value in assay [1] was found to be 0.08 µg/mL. In addition, the “Apoptosis induction of MB-1 cells (%)” value in assay [2] (Stelliferin A present at 0.4 μg/mL plus imatinib 0.2 μM) came to 22.39%; in assay [2] (Stelliferin A present at 0.4 μg/mL plus imatinib 1.0 μM), 44.63%; in assay [2] (Stelliferin A present at 0.4 μg/mL, imatinib absent), 16.03%. In addition, the “Ratio of MB-1 cells which induced apoptosis / NucView peak representing caspase 3 activity” value in [2] (presence of Stelliferin A with imatinib 0.2 μM and 1.0 μM compared to absence of Stelliferin A) is “increased depending on each of the concentrations of Stelliferin A and imatinib; also recorded: statistically significantly (Student t test, p<0.05) increased”. The “Apoptosis induction (JC-1, mitochondrial membrane potential difference disappeared)” value in assay [4] (co-presence of Stelliferin A 0.4 μg/mL and imatinib 1.0 μM) is listed as “apoptosis was induced”. Besides, the “Apoptosis induction (JC-1) when dose of imatinib was changed” value in assay [4] (in the presence of Stelliferin A, imatinib dose varied) was “apoptosis was also induced in the dose-dependent manner of imatinib”. The “Position of MB-1 cells relative to OP9 cell layer” value in assay [5] is “MB-1 cells were exposed to the upper side of the OP9 cell layer”. For the same compound, in assay [6], the “Niche formation by TF-1 cells” value is reported as “suppressed niche formation by TF-1 cells”. For the same compound, the “CA reformation after removal of Stelliferin A” value in assay [7] is reported as “CA was not reformed”. The “CA reformation of treated free MB-1 cells with fresh OP9 cells” value in the assay with MB-1 cells [8] is listed as “CA was reformed”. Also, the “Number of CAs formed with OP9 cells exposed to Stelliferin A” value in the assay on OP9 cells is “the number of CAs formed was low”.
